Laboratory results from publication PMC5218480 (PLoS ONE, 2017).

System: MV-4-11 cells
Experiment: Gene expression microarray analysis (Affymetrix PrimeView) and GSEA
Assay type: cell-based, human
Set-up: RFU PODN (11730768_x_at) / Fold change /veh PODN (11730768_x_at) / RFU LINC00158 (11744669_a_at) / Fold change /veh LINC00158 (11744669_a_at) / RFU DUSP10 (11751237_a_at) / Fold change /veh DUSP10 (11751237_a_at) / RFU ID3 (11757404_x_at) / Fold change /veh ID3 (11757404_x_at) / RFU PLEKHG5 (11737974_s_at) / Fold change /veh PLEKHG5 (11737974_s_at) / RFU LRRC4B (11730491_at) / Fold change /veh LRRC4B (11730491_at) / RFU GIMAP4 (11747438_a_at) / Fold change /veh GIMAP4 (11747438_a_at) / RFU KRT8 (11758183_x_at) / Fold change /veh KRT8 (11758183_x_at) / RFU CNN1 (11734310_a_at) / Fold change /veh CNN1 (11734310_a_at) / RFU VPS37D (11726825_at) / Fold change /veh VPS37D (11726825_at) / RFU C10orf10 (11716522_x_at) / Fold change /veh C10orf10 (11716522_x_at) / RFU KIR2DL2 /// KIR2DL4 /// KIR2DL5A /// KIR2DL5B /// KIR2DS1 /// KIR2DS2 /// KIR2DS3 /// KIR2DS4 /// KIR3DL3 /// KIR3DL3 /// KIR3DS1 (11738374_at) / Fold change /veh KIR2DL2 /// KIR2DL4 /// KIR2DL5A /// KIR2DL5B /// KIR2DS1 /// KIR2DS2 /// KIR2DS3 /// KIR2DS4 /// KIR3DL3 /// KIR3DL3 /// KIR3DS1 (11738374_at) / RFU C1QL1 (11718748_at) / Fold change /veh C1QL1 (11718748_at) / RFU TMPRSS4 (11747572_a_at) / Fold change /veh TMPRSS4 (11747572_a_at) / RFU HAMP (11756126_x_at) / Fold change /veh HAMP (11756126_x_at) / RFU RNFT2 (11725882_a_at) / Fold change /veh RNFT2 (11725882_a_at) / RFU NR4A2 (11747474_a_at) / Fold change /veh NR4A2 (11747474_a_at) / RFU ABCC12 (11746883_a_at) / Fold change /veh ABCC12 (11746883_a_at) / RFU TMEM136 (11760407_x_at) / Fold change /veh TMEM136 (11760407_x_at) / RFU CLDN22 /// WWC2 (11732394_at) / Fold change /veh CLDN22 /// WWC2 (11732394_at) / RFU HLA-DPB1 (11760878_x_at) / Fold change /veh HLA-DPB1 (11760878_x_at) / RFU SPINT1 (11716480_a_at) / Fold change /veh SPINT1 (11716480_a_at) / RFU GAP43 (11754022_s_at) / Fold change /veh GAP43 (11754022_s_at) / RFU A4GNT (11735810_at) / Fold change /veh A4GNT (11735810_at) / RFU PRB3 (11715151_x_at) / Fold change /veh PRB3 (11715151_x_at) / RFU TUBB4B (11761932_at) / Fold change /veh TUBB4B (11761932_at) / RFU CAPN14 (11732068_a_at) / Fold change /veh CAPN14 (11732068_a_at) / RFU TMCC2 (11721928_a_at) / Fold change /veh TMCC2 (11721928_a_at) / RFU IRGQ (11745062_a_at) / Fold change /veh IRGQ (11745062_a_at) / RFU FAM174B (11720279_a_at) / Fold change /veh FAM174B (11720279_a_at) / RFU TMPRSS4 (11748680_a_at) / Fold change /veh TMPRSS4 (11748680_a_at) / RFU FAM212B (11763350_a_at) / Fold change /veh FAM212B (11763350_a_at) / RFU PLEKHG5 (11743358_a_at) / Fold change /veh PLEKHG5 (11743358_a_at) / RFU ZSCAN30 (11745921_a_at) / Fold change /veh ZSCAN30 (11745921_a_at) / RFU CMKLR1 (11741424_a_at) / Fold change /veh CMKLR1 (11741424_a_at) / RFU LOC101060620 /// MAPK8IP1 (11723275_at) / Fold change /veh LOC101060620 /// MAPK8IP1 (11723275_at) / RFU SPTSSB (11747773_x_at) / Fold change /veh SPTSSB (11747773_x_at) / RFU PRSS12 (11739890_at) / Fold change /veh PRSS12 (11739890_at) / RFU BIN1 (11741810_x_at) / Fold change /veh BIN1 (11741810_x_at) / RFU WNT11 (11732464_a_at) / Fold change /veh WNT11 (11732464_a_at) / RFU C10orf10 (11716521_a_at) / Fold change /veh C10orf10 (11716521_a_at) / RFU C5orf56 (11738089_at) / Fold change /veh C5orf56 (11738089_at) / RFU CYB561 (11721691_x_at) / Fold change /veh CYB561 (11721691_x_at) / RFU ANKRD19P (11752326_a_at) / Fold change /veh ANKRD19P (11752326_a_at) / RFU OR2T12 /// OR2T33 /// OR2T8 (11738714_s_at) / Fold change /veh OR2T12 /// OR2T33 /// OR2T8 (11738714_s_at) / RFU VCAN (11748164_a_at) / Fold change /veh VCAN (11748164_a_at) / RFU JSRP1 (11732532_at) / Fold change /veh JSRP1 (11732532_at) / RFU KRTAP10-11 (11738290_x_at) / Fold change /veh KRTAP10-11 (11738290_x_at) / RFU MYO3A (11730013_a_at) / Fold change /veh MYO3A (11730013_a_at) / RFU EBF3 (11725865_a_at) / Fold change /veh EBF3 (11725865_a_at) / RFU CAMK2N1 (11719241_x_at) / Fold change /veh CAMK2N1 (11719241_x_at) / RFU C5orf56 (11738088_a_at) / Fold change /veh C5orf56 (11738088_a_at) / RFU OLFML3 (11715873_a_at) / Fold change /veh OLFML3 (11715873_a_at) / RFU LOC100653217 /// NTM (11731650_a_at) / Fold change /veh LOC100653217 /// NTM (11731650_a_at) / RFU MAPK11 (11762145_a_at) / Fold change /veh MAPK11 (11762145_a_at) / RFU FIZ1 (11724087_x_at) / Fold change /veh FIZ1 (11724087_x_at) / RFU OASL (11726364_x_at) / Fold change /veh OASL (11726364_x_at) / RFU SOX15 (11748057_x_at) / Fold change /veh SOX15 (11748057_x_at) / RFU CD79A (11719716_a_at) / Fold change /veh CD79A (11719716_a_at) / RFU HIST1H1D (11736915_at) / Fold change /veh HIST1H1D (11736915_at) / RFU CASKIN2 (11723855_a_at) / Fold change /veh CASKIN2 (11723855_a_at) / RFU LOC730098 (11760151_x_at) / Fold change /veh LOC730098 (11760151_x_at) / RFU OR4N2 (11742367_at) / Fold change /veh OR4N2 (11742367_at) / RFU PRRT2 (11749266_a_at) / Fold change /veh PRRT2 (11749266_a_at) / RFU SNX32 (11753110_a_at) / Fold change /veh SNX32 (11753110_a_at) / RFU CDHR5 (11726645_a_at) / Fold change /veh CDHR5 (11726645_a_at) / RFU RCAN1 (11760418_a_at) / Fold change /veh RCAN1 (11760418_a_at) / RFU FAM167A (11723789_a_at) / Fold change /veh FAM167A (11723789_a_at) / RFU FAM26E (11764081_at) / Fold change /veh FAM26E (11764081_at) / RFU ISYNA1 (11749810_s_at) / Fold change /veh ISYNA1 (11749810_s_at) / RFU ACY1 (11761880_at) / Fold change /veh ACY1 (11761880_at) / RFU 11764098_at / Fold change /veh 11764098_at / RFU SAMD14 (11745864_x_at) / Fold change /veh SAMD14 (11745864_x_at) / RFU NPB (11741838_a_at) / Fold change /veh NPB (11741838_a_at) / RFU TMPRSS6 (11731388_a_at) / Fold change /veh TMPRSS6 (11731388_a_at) / RFU KRTAP10-2 (11738614_at) / Fold change /veh KRTAP10-2 (11738614_at) / RFU ARHGAP8 /// PRR5-ARHGAP8 (11727945_x_at) / Fold change /veh ARHGAP8 /// PRR5-ARHGAP8 (11727945_x_at) / RFU KRTAP5-7 /// NADSYN1 (11734609_at) / Fold change /veh KRTAP5-7 /// NADSYN1 (11734609_at) / RFU RASL12 (11751679_a_at) / Fold change /veh RASL12 (11751679_a_at) / RFU CDKN2B (11736163_a_at) / Fold change /veh CDKN2B (11736163_a_at) / RFU PRF1 (11729649_at) / Fold change /veh PRF1 (11729649_at) / RFU, ZNF638 /// ZNF638-IT1 / Fold change vs veh, ZNF638 /// ZNF638-IT1 / RFU, PANK3 / Fold change vs veh, PANK3 / RFU, SH3YL1 / Fold change vs veh, SH3YL1 / RFU, ZEB2 / Fold change vs veh, ZEB2 / RFU, NRIP1 / Fold change vs veh, NRIP1 / RFU, PTTG1IP / Fold change vs veh, PTTG1IP / RFU, CAPN2 / Fold change vs veh, CAPN2 / RFU, MED14 / Fold change vs veh, MED14 / RFU, SNORA58 / Fold change vs veh, SNORA58 / RFU, C1orf63 / Fold change vs veh, C1orf63 / RFU, LRRFIP1 / Fold change vs veh, LRRFIP1 / RFU, NDUFAF7 / Fold change vs veh, NDUFAF7 / RFU, SLC12A2 / Fold change vs veh, SLC12A2 / RFU, IBTK / Fold change vs veh, IBTK / RFU, ESF1 / Fold change vs veh, ESF1 / Fold change vs veh, TMEM50B / RFU, TAOK1 / Fold change vs veh, TAOK1 / RFU, ACBD3 / Fold change vs veh, ACBD3 / RFU, TMA16 / Fold change vs veh, TMA16 / RFU, RWDD3 / Fold change vs veh, RWDD3 / RFU, BCAT1 / Fold change vs veh, BCAT1 / RFU, EDEM3 / Fold change vs veh, EDEM3 / RFU, TMEM33 / Fold change vs veh, TMEM33 / RFU, WDR75 / Fold change vs veh, WDR75 / RFU, AHCTF1 / Fold change vs veh, AHCTF1 / RFU, TFRC / Fold change vs veh, TFRC / RFU, ZDHHC17 / Fold change vs veh, ZDHHC17 / RFU, NOM1 / Fold change vs veh, NOM1 / RFU, ARL8B / Fold change vs veh, ARL8B / RFU, ZBTB11 / Fold change vs veh, ZBTB11 / RFU, TAMM41 / Fold change vs veh, TAMM41 / RFU, KIAA1704 /// LOC100996395 / Fold change vs veh, KIAA1704 /// LOC100996395 / RFU, ING1 / Fold change vs veh, ING1 / RFU, TRMT61B / Fold change vs veh, TRMT61B / RFU, FUBP3 / Fold change vs veh, FUBP3 / RFU, TP53 / Fold change vs veh, TP53 / RFU, TNKS2 / Fold change vs veh, TNKS2 / RFU, ZFP14 / Fold change vs veh, ZFP14 / RFU, ACTR2 / Fold change vs veh, ACTR2 / RFU, PPP3R1 / Fold change vs veh, PPP3R1 / RFU, PIK3R1 / Fold change vs veh, PIK3R1 / RFU, HNRNPA1 / Fold change vs veh, HNRNPA1 / RFU, RNF170 / Fold change vs veh, RNF170 / RFU, ZNF28 / Fold change vs veh, ZNF28 / RFU, RNGTT / Fold change vs veh, RNGTT / RFU, OGT / Fold change vs veh, OGT / RFU, BRD1 / Fold change vs veh, BRD1 / RFU, MARS / Fold change vs veh, MARS / RFU, ZNF655 / Fold change vs veh, ZNF655 / RFU, FAHD1 / Fold change vs veh, FAHD1 / RFU, BDP1 / Fold change vs veh, BDP1 / RFU, LRRCC1 / Fold change vs veh, LRRCC1 / RFU, ARID1A / Fold change vs veh, ARID1A / RFU, ZNF146 / Fold change vs veh, ZNF146 / RFU, ZNF330 / Fold change vs veh, ZNF330 / RFU, GPN3 / Fold change vs veh, GPN3 / RFU, C9orf123 / Fold change vs veh, C9orf123 / RFU, N4BP2L2 / Fold change vs veh, N4BP2L2 / RFU, ARFIP1 / Fold change vs veh, ARFIP1 / RFU, FAM179B / Fold change vs veh, FAM179B / RFU, BCL10 / Fold change vs veh, BCL10 / RFU, UHRF1BP1L / Fold change vs veh, UHRF1BP1L / RFU, BET1 / Fold change vs veh, BET1 / RFU, CNOT2 / Fold change vs veh, CNOT2 / RFU, ZNF268 / Fold change vs veh, ZNF268 / Fold change vs veh, ZNF507 / RFU, DGCR2 / Fold change vs veh, DGCR2 / RFU, WDSUB1 / Fold change vs veh, WDSUB1 / Fold change vs veh, HSP90B1 /// MIR3652 / RFU, ADSS / Fold change vs veh, ADSS / RFU, GK / Fold change vs veh, GK / RFU, ZNF148 / Fold change vs veh, ZNF148 / RFU, TAF9 / Fold change vs veh, TAF9 / RFU, SLC1A5 / Fold change vs veh, SLC1A5 / RFU, SLMO2 / Fold change vs veh, SLMO2 / RFU, ABCC4 / Fold change vs veh, ABCC4 / RFU, LOC101060439 /// RAP1B / Fold change vs veh, LOC101060439 /// RAP1B / RFU, RFX7 / Fold change vs veh, RFX7 / RFU, GTPBP10 / Fold change vs veh, GTPBP10 / RFU, CNEP1R1 / Fold change vs veh, CNEP1R1 / RFU, BIVM-ERCC5 /// ERCC5 / Fold change vs veh, BIVM-ERCC5 /// ERCC5 / RFU, ILF3 / Fold change vs veh, ILF3 / RFU 11762660_at / Fold change /veh 11762660_at / RFU VCAN (11757783_s_at) / Fold change /veh VCAN (11757783_s_at) / RFU DDX43 (11728927_at) / Fold change /veh DDX43 (11728927_at) / RFU KRT8 (11758188_x_at) / Fold change /veh KRT8 (11758188_x_at) / RFU NKD1 (11759106_at) / Fold change /veh NKD1 (11759106_at) / RFU SRD5A1 (11742802_a_at) / Fold change /veh SRD5A1 (11742802_a_at) / RFU TPSAB1 /// TPSB2 (11721975_s_at) / Fold change /veh TPSAB1 /// TPSB2 (11721975_s_at) / RFU GSTM3 (11746129_a_at) / Fold change /veh GSTM3 (11746129_a_at) / RFU IL23R (11737362_x_at) / Fold change /veh IL23R (11737362_x_at) / RFU TMEM51 (11727254_a_at) / Fold change /veh TMEM51 (11727254_a_at) / RFU PIWIL2 (11732686_x_at) / Fold change /veh PIWIL2 (11732686_x_at) / RFU ORM1 (11744905_x_at) / Fold change /veh ORM1 (11744905_x_at) / RFU CCDC152 (11743942_at) / Fold change /veh CCDC152 (11743942_at) / RFU ECM1 (11717891_a_at) / Fold change /veh ECM1 (11717891_a_at) / RFU IL23R (11748794_a_at) / Fold change /veh IL23R (11748794_a_at) / RFU TNFAIP8L3 (11732012_x_at) / Fold change /veh TNFAIP8L3 (11732012_x_at) / RFU MBOAT4 (11741988_at) / Fold change /veh MBOAT4 (11741988_at) / RFU 11764193_at / Fold change /veh 11764193_at / RFU TMEM53 (11763286_at) / Fold change /veh TMEM53 (11763286_at) / RFU MAGEB2 (11727129_at) / Fold change /veh MAGEB2 (11727129_at) / RFU TMEM200A (11744735_a_at) / Fold change /veh TMEM200A (11744735_a_at) / RFU CCDC152 (11751479_a_at) / Fold change /veh CCDC152 (11751479_a_at) / RFU FAM211A (11726209_a_at) / Fold change /veh FAM211A (11726209_a_at) / RFU RGS16 (11746705_a_at) / Fold change /veh RGS16 (11746705_a_at) / RFU VCAN (11755009_s_at) / Fold change /veh VCAN (11755009_s_at) / RFU RHOB (11743442_s_at) / Fold change /veh RHOB (11743442_s_at) / RFU RGS16 (11720943_a_at) / Fold change /veh RGS16 (11720943_a_at) / RFU RGS16 (11720944_at) / Fold change /veh RGS16 (11720944_at) / RFU, VPS4B / Fold change vs veh, VPS4B / RFU, CREB1 / Fold change vs veh, CREB1 / RFU, DNAJC13 / Fold change vs veh, DNAJC13 / RFU, GNAQ / Fold change vs veh, GNAQ / RFU, CDK5R1 / Fold change vs veh, CDK5R1 / RFU, ZRANB3 / Fold change vs veh, ZRANB3 / RFU, CUL4A / Fold change vs veh, CUL4A / RFU, CCNY / Fold change vs veh, CCNY / RFU, UFL1 / Fold change vs veh, UFL1 / RFU, COG3 / Fold change vs veh, COG3 / RFU, DIAPH2 / Fold change vs veh, DIAPH2 / RFU, SKA2 / Fold change vs veh, SKA2 / RFU, AFF3 / Fold change vs veh, AFF3 / RFU, LMF1 / Fold change vs veh, LMF1 / RFU, IPO11 / Fold change vs veh, IPO11 / RFU, DFFB / Fold change vs veh, DFFB / RFU, FOXP1 / Fold change vs veh, FOXP1 / RFU, CARD8 / Fold change vs veh, CARD8 / RFU, STRN3 / Fold change vs veh, STRN3 / RFU, ADK / Fold change vs veh, ADK / RFU, RASSF2 / Fold change vs veh, RASSF2 / RFU, WIPF1 / Fold change vs veh, WIPF1 / RFU, LARP1B / Fold change vs veh, LARP1B / RFU, RASA1 / Fold change vs veh, RASA1 / RFU, RB1 / Fold change vs veh, RB1 / RFU, PPFIA1 / Fold change vs veh, PPFIA1 / RFU, MAT2A / Fold change vs veh, MAT2A / RFU, CCT5 / Fold change vs veh, CCT5 / RFU, WDR92 / Fold change vs veh, WDR92 / RFU, CUX1 / Fold change vs veh, CUX1 / RFU, TTC7A / Fold change vs veh, TTC7A / RFU, TMEM135 / Fold change vs veh, TMEM135 / RFU, DEPTOR / Fold change vs veh, DEPTOR / RFU, CPM / Fold change vs veh, CPM / RFU, DNAJB6 / Fold change vs veh, DNAJB6 / RFU, CACNA2D3 / Fold change vs veh, CACNA2D3 / RFU, DTX4 / Fold change vs veh, DTX4 / RFU, TFCP2 / Fold change vs veh, TFCP2 / RFU, GMCL1 /// GMCL1P1 / Fold change vs veh, GMCL1 /// GMCL1P1 / RFU, AEBP2 / Fold change vs veh, AEBP2 / RFU, SNHG1 /// SNORD22 /// SNORD25 /// SNORD26 /// SNORD27 /// SNORD28 /// SNORD29 /// SNORD31 / Fold change vs veh, SNHG1 /// SNORD22 /// SNORD25 /// SNORD26 /// SNORD27 /// SNORD28 /// SNORD29 /// SNORD31 / Fold change (Aza/veh), C12orf56 (ProbeSet 11735607_a_at) / Fold change (ACY-1035/veh), C12orf56 (ProbeSet 11735607_a_at) / Fold change (Aza/veh), FGFR1OP (ProbeSet 11751329_s_at) / Fold change (ACY-1035/veh), FGFR1OP (ProbeSet 11751329_s_at) / Fold change (Aza/veh), VPS36 (ProbeSet 11739960_a_at) / Fold change (ACY-1035/veh), VPS36 (ProbeSet 11739960_a_at) / RFU SYPL1 (11715823_x_at) / Fold change /veh SYPL1 (11715823_x_at) / RFU IGFBP7 (11715501_s_at) / Fold change /veh IGFBP7 (11715501_s_at) / RFU REEP3 (11722064_at) / Fold change /veh REEP3 (11722064_at) / RFU IGLL1 (11728026_x_at) / Fold change /veh IGLL1 (11728026_x_at): dose or concentration left out as unconfirmed
Conditions: MV-4-11 cells, 48 hours

Nc1ncn([C@@H]2O[C@H](CO)[C@@H](O)[C@H]2O)c(=O)n1 [azacitidine] was tested, and the “RFU PIWIL2 (11732686_x_at)” value was 15.01 RFU.
